Reference: patent US20030194750A1, “Methods for treatment of diseases where GSK 3-beta is desired, and methods to identify compounds usefule for that” (priority 2002, published 2003)
Where two headings read alike, the source gives them in different places. Each block holds one compound with its values, some of them ahead of it.

Legend:
[1] = target: T1, GST-cGB-PDE5 fusion protein (Homo sapiens, UniProt O76074); assay: cGMP binding assay with GST-cGB-PDE5 fusion protein; conditions: for competition with cGMP binding at high concentration: 100 μM compound vs cGMP 2 μM
T1 construct: made in house; host or cells: E. coli BL21 (DE3)
T1 sequence (O76074 46-539 limits assumed): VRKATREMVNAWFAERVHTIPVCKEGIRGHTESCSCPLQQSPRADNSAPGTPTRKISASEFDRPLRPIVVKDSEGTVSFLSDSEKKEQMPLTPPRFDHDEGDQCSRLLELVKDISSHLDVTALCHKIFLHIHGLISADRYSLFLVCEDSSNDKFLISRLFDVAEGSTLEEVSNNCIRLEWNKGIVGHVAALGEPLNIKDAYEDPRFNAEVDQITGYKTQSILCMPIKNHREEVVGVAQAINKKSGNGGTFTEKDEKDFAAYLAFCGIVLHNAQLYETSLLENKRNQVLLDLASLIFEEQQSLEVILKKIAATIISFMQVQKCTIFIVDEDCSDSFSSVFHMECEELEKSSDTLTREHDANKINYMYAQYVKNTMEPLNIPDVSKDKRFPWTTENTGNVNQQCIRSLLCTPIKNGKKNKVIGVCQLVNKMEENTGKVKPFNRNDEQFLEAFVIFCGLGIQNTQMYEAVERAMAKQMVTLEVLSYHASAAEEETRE
Method: 5′-3′, Inc. kits for total RNA followed by oligo (dT) column purification of mRNA are used with HT-29 cells. […] It is then cloned into pGEX-5X-3 glutathione-S-transferase (GST) fusion vector (Pharmacia Biotech) with tac promoter, and EcoRI and XhoI cut sites. The fusion vector is then transfected into E. Coli BL21 (DE3) bacteria (Invitrogen). The transfected BL21 bacteria is grown to log phase, and then IPTG is added as an inducer. The induction is carried at 20° C. for 24 hrs. The bacteria are harvested and lysed. The soluble cell lysate is incubated with GSH conjugated Sepharose 4B (GSH-Sepharose 4B). The GST-cGB-PDE5 fusion protein can bind to the GSH-Sepharose beads, and the other proteins are washed off from beads with excessive cold PBS.
Then, the mixture is transferred to Brandel MB-24 cell harvester with GF/B as the filter membrane followed by 2 washes with 10 mL of cold 5 mM potassium buffer( pH 6.8). The membranes are then cut out and transferred to scintillation vials followed by the addition of 1 mL of H2O and 6 mL of Ready Safe™ liquid scintillation cocktail to each vial. The vials are counted on a Beckman LS 6500 scintillation counter.
The quenching by filter membrane or other debris are also calibrated.

GSK3β = assay: Western blot of GSK3β-phospho-ser9 in SW480 cells; assay type: cell-based, human; conditions: various concentrations, 48 hours, vs 0 concentration
Method: (§1) 50 μg protein/lane were analyzed by Western blot analysis using specific anti-PKG1β and anti-GSK3β-phospho-ser9 antibodies.

PKG1β = assay: Western blot of PKG1β in SW480 cells; assay type: cell-based, human; conditions: various concentrations, 48 hours
Method: as §1

native bovine PDE5 = native bovine PDE5 (Bos taurus, UniProt Q28156); conditions: read-out: Kd of cGMP binding; cited from earlier work
PKG = PKG activity assay on lysates of drug-treated SW480 colon cancer cells (32P phosphorylation of PDE5/GST substrate); assay type: cell-based, human; conditions: SW480 cells treated 48 hrs; exisulind 200, 400, 600 μM, E4021 0.1, 1, 10 μM; assay with and without added cGMP
Method: A compound that inhibits all these types of PDE is desirable, accordingly. Below, we provide examples of such PDE-inhibiting compounds.
SW 480 is known to contain the APC mutation. About 5 million SW480 cells in RPMI 5% serum are added to each of 8 dishes:
2-10 cm dishes - - - 30 μL DMSO vehicle control (without drug),
3-10 cm dishes - - - 200 μM, 400 μM, 600 μM exisulind in DMSO, and
The dishes are incubated for 48 hrs at 37° C. in 5% CO2 incubator.
The liquid media are aspirated from the dishes (the cells will attach themselves to the dishes). The attached cells are washed in each dish with cold PBS, and 200 μL cell lysis buffer (i.e., 50 mM Tris-HCl, 1% NP-40, 150 mM NaCl, 1 mM EDTA, 1 mM Na3VO4, 1 mM NaF, 500 μM IBMX with proteinase inhibitors) is added to each dish. Immediately after the cell lysis buffer is added, the lysed cells are collected by scraping the cells off each dish. The cell lysate from each dish is transferred to a microfuge tube, and the microfuge tubes are incubated at 4° C. for 15 minutes while gently agitating the microfuge tubes to allow the cells to lyse completely. […]
For each control or drug cell lysate sample to be evaluated, the reaction is started by adding phosphorylation buffer containing 10 μCi ^32P-γ-ATP solution (200 μM ATP, 4.5 mM MgCl; 5 mM KH2PO4; 5 mM K2HPO4;) to each mixture. […]

competition with cGMP for the cGMP binding sites ([1]; 3H-cGMP 2 μM, 22° C., 1 hour): did not compete with cGMP in binding
SMILES: CCCCOC1C2OP(=O)(O)OCC2OC1n1cnc2c(=O)[nH]c(N)nc21 (stereo not shown) [2′-O-butyl-cGMP]

competition with cGMP for the cGMP binding sites ([1]; 3H-cGMP 2 μM, 22° C., 1 hour): did not compete with cGMP in binding
SMILES: CCCCOC1C2OP(=O)(O)OCC2OC1n1cnc2c(N)ncnc21 (stereo not shown) [2′-O-butyl-cAMP]

SMILES: Nc1ncnc2c1ncn2[C@@H]1O[C@@H]2COP(=O)(O)O[C@H]2[C@H]1O [Cyclic AMP]
competition with cGMP for the cGMP binding sites [1]: did not compete with cGMP in binding

SMILES: COc1cc(/C=C2/C(C)=C(CC(=O)NCc3ccccc3)c3cc(F)ccc32)cc(OC)c1OC [Compound A, 1H-indene-3-acetamide, 5-fluoro-2-methyl-N-(phenylmethyl)-1-[(3,4,5-trimethoxyphenyl)methylene]-, (1Z)]
GSK3β inactivation by Ser9 phosphorylation (GSK3β): inactivated in vivo by phosphorylation of its Ser9
PKG1 induction (PKG1β): PKG1 induction in a dose-dependent manner

competition with cGMP for the cGMP binding sites ([1]; 3H-cGMP 2 μM, 22° C., 1 hour): did not compete with cGMP in binding
SMILES: O=c1ccn([C@@H]2O[C@@H]3COP(=O)(O)O[C@H]3[C@H]2O)c(=O)[nH]1 [cUMP, cyclic UMP]

SMILES: CSc1ccc(/C=C2/C(C)=C(CC(=O)O)c3cc(F)ccc32)cc1 [Sulindac sulfide]
competition with cGMP for the cGMP binding sites ([1]; 3H-cGMP 2 μM, 22° C., 1 hour): None of the PDE5 inhibitors showed any competition with cGMP in binding

SMILES: Nc1nc2c(ncn2[C@@H]2O[C@@H]3COP(=O)(O)O[C@H]3[C@H]2O)c(=O)[nH]1 [cGMP, cyclic 3′,5′-guanosine monophosphate]
binding of cGMP to the fusion protein [1]: specifically bound to GST-cGB-PDE5 protein
Kd ([1]; read-out: Kd of cGMP binding, two cGMP binding sites): 1600 ± 200 nM
Kd (native bovine PDE5): 1300 nM

SMILES: O=C([O-])C1CCN(c2nc(NCc3ccc4c(c3)OCO4)c3cc(Cl)ccc3n2)CC1.[Na+] [Example E4021]
PKG activity relative to control (PKG): do not exhibit PKG activation relative to control
competition with cGMP for the cGMP binding sites ([1]; 3H-cGMP 2 μM, 22° C., 1 hour): None of the PDE5 inhibitors showed any competition with cGMP in binding

SMILES: CCCOc1ccccc1-c1nc2nn[nH]c2c(=O)[nH]1 [zaprinast]
competition with cGMP for the cGMP binding sites ([1]; 3H-cGMP 2 μM, 22° C., 1 hour): None of the PDE5 inhibitors showed any competition with cGMP in binding

competition with cGMP binding at high concentration [1]: can partially compete with cGMP
SMILES: O=c1[nH]cnc2c1ncn2[C@@H]1O[C@@H]2COP(=O)(O)O[C@H]2[C@H]1O [Cyclic IMP]

competition with cGMP binding at high concentration [1]: can partially compete with cGMP
SMILES: Nc1nc2c(nc(Br)n2[C@@H]2O[C@@H]3COP(=O)(O)O[C@H]3[C@H]2O)c(=O)[nH]1 [Example 8-bromo-cGMP, 8-bromo-cGMP]

competition with cGMP for the cGMP binding sites ([1]; 3H-cGMP 2 μM, 22° C., 1 hour): did not compete with cGMP in binding
SMILES: Nc1ccn([C@@H]2O[C@@H]3COP(=O)(O)O[C@H]3[C@H]2O)c(=O)n1 [cCMP, cyclic CMP]
